Test results published in paper PMC9220410, “Antiamoebic Properties of Laboratory and Clinically Used Drugs against Naegleria fowleri and Balamuthia mandrillaris” (Antibiotics, 2022).
Like-named read-outs stand apart in the source and are kept apart here.

Columns and labels:
[1] = parameters: method as in PMID 29206032, PMID 32548431; conditions: ref [24],[25],[26]; cited from earlier work
[2] = tested on: HaCaT cells; format: cell-based, human
Method: Cytotoxic effects of the drugs were determined as previously described^21. Briefly, the cytotoxic activity of the drugs was investigated against HaCaT cells. […] The LDH assay protocol is based on an enzymatic reaction, i.e., LDH released from the cell oxidizes lactate to generate NADH, which then reacts with water-soluble tetrazolium salt (WST) to generate a yellow color. The intensity of the generated color correlates directly with the number of lyzed cells. Following this, 1% Triton X-100 was added to the positive control well and incubated the plate for 60 min at 37 °C. For negative control, human cells were grown in RPMI alone well. Then, an equal amount of cells supernatant (comprising LDH enzyme) from each well was combined with equal amount of LDH kit reagents and cytotoxicity was determined in proportion to LDH released from human cells using a spectrophotometer at 490 nm. The percentage LDH released was determined as follows: [(Absorbance of sample − Absorbance of control)/(Absorbance for total LDH release − Absorbance of control)] × 100 = percentage cytotoxicity.
Figure 4 Cytotoxic effects of compounds against human cells are depicted. Various concentrations of compounds were incubated with human cells for 24 h at 37 °C and 5% CO2. RPMI alone was used as negative control and triton X-100 was used as positive control. Data are presented as the mean ± standard error of 2 experiments conducted in duplicates.

[3] = tested on: B. mandrillaris cysts; experiment: Excystation assay, B. mandrillaris cysts; format: cell-based; conditions: Balamuthia mandrillaris, read-out: Inhibition of excystation of B. mandrillaris
Method: (§1) Briefly, 5 × 10^5 amoebae cysts (N. fowleri and B. mandrillaris cells) were incubated with 100 μM drugs and/or solvent in 24-well plates containing RPMI-1640 on HeLa monolayers at 37 °C and 5% CO2 until around 75% of the cysts in RPMI-1640 alone have excysted. The RPMI-1640 alone was used as a negative control while DMSO and ethanol were used as a solvent control and 100 μM miltefosine was used as positive control. Live trophozoites (amoebae that excysted) were then quantified by counting live (unstained) cells, after addition of 0.1% Trypan blue to each well, using a haemocytometer. Percentage inhibition is defined as: [(Number of trophozoites in untreated well − Number of trophozoites in treated well)/Number of trophozoites in untreated well)] × 100. The data are representative of the mean ± standard error of several independent experiments performed in duplicate.
(§2) Figure 3 (A) Inhibition of excystation of N. fowleri cysts. N. fowleri cysts were incubated with 100 μM drugs and/or solvent in 24-well plates containing RPMI-1640 on HeLa monolayers for 24 h and number of viable trophozoites were then enumerated. Percentage inhibition of excystation was calculated by: [((RPMI trophozoite cell count − trophozoite cell count for sample)/RPMI trophozoite cell count) × 100)]. The activities of solvents alone were negated from the activities of the compounds. The data is presented as the mean ± standard error (*: p ˂ 0.05, **: p < 0.01, ***: p < 0.001 using student t-test; two tailed distribution). (B) Inhibition of excystation of B. mandrillaris cysts. B. mandrillaris cysts were incubated with 100 μM drugs and/or solvent in 24-well plates containing RPMI-1640 on HeLa monolayers for 24 h and number of viable trophozoites were then enumerated. Percentage inhibition of excystation was calculated by: [((RPMI trophozoite cell count − trophozoite cell count for sample)/RPMI trophozoite cell count) × 100)]. The activities of solvents alone were negated from the activities of the compounds. The data is presented as the mean ± standard error (*: p ˂ 0.05, **: p < 0.01, ***: p < 0.001 using student t-test; two tailed distribution).

[4] = tested on: N. fowleri cysts; experiment: Excystation assay, N. fowleri cysts; format: cell-based, Naegleria fowleri; conditions: for inhibition at 100 µM: Naegleria fowleri, read-out: Inhibition of excystation of N. fowleri
Method: as §1, §2

[5] = tested on: N. fowleri trophozoites; experiment: Amoebicidal assay against N. fowleri trophozoites (Trypan blue); format: cell-based, Naegleria fowleri; conditions: for minimal effective concentration / EC50: Naegleria fowleri; for minimal effective concentration: read-out: Lowest concentration showing significant amoebicidal activity against N. fowleri; for EC50: read-out: Half maximal effective concentration (EC50), N. fowleri; for Amoebicidal activity against N. fowleri: summary in discussion, concentration not given
Method: (§3) Amoebicidal assays were performed as previously described. Briefly, 5 × 10^5 amoebae (N. fowleri and B. mandrillaris cells) were incubated with drugs and/or solvents in 24-well plates in RPMI-1640. Amoebae were incubated with RPMI-1640 for negative controls while DMSO and ethanol were used as solvent control. For the positive control, the anti-amoebic drug, 100 μM miltefosine was used. Plates were incubated at 37 °C and 5% CO2 for 24 h. Next, 0.1% Trypan blue was added to each well. […] The number of live cells (i.e., unstained) was counted using a haemocytometer to determine amoebicidal effects of various compounds. The data are representative of the mean ± standard error of several experiments performed in duplicate.
(§4) Figure 1 The amoebicidal activities of compounds against N. fowleri trophozoites. N. fowleri trophozoites were incubated with various concentrations of compounds for 24 h and trophozoites viability was determined using Trypan blue. Percentage amoebicidal activity was calculated by: [((RPMI cell count − cell count for sample)/RPMI cell count) × 100)]. The activities of solvents alone were negated from the activities of the compounds. The data is presented as the mean ± standard error (*: p < 0.05, **: p < 0.01, ***: p < 0.001 using student t-test; two tailed distribution).

[6] = tested on: B. mandrillaris trophozoites; experiment: Amoebicidal assay against B. mandrillaris trophozoites (Trypan blue); format: cell-based, Balamuthia mandrillaris; conditions: for EC50 / Concentration showing significant amoebicidal activity against B. mandrillaris: 24 h; for EC50: read-out: Half maximal effective concentration (EC50), B. mandrillaris; for Concentration showing significant amoebicidal activity against B. mandrillaris: compared to solvent control; for Amoebicidal activity against B. mandrillaris: summary in discussion, concentration not given
Method: as §3
as §4, with “Figure 2” for “Figure 1”, “against B. mandrillaris” for “against N. fowleri”, “trophozoites. B. mandrillaris” for “trophozoites. N. fowleri”

[7] = LDH release, 24 h, concentration not given
[8] = 100 μM, after negating effects of solvent alone
[9] = compared to solvent control, p < 0.05, 24 h
[10] = trophozoites, 24 h, Trypan blue
[11] = Balamuthia mandrillaris, trophozoites, Trypan blue

Row | Compound | BBB Permeability [1] | Cytotoxicity against HaCaT cells [2, 7] | inhibition at 100 µM [3, 8] | minimal effective concentration [5, 9] | EC50 [5, 10] | EC50 [6, 11] | Concentration showing significant amoebicidal activity against B. mandrillaris [6] | inhibition at 100 µM [4, 8] | EC50 ([6]; Balamuthia mandrillaris) | EC50 ([5]; 24 h) | Amoebicidal activity against B. mandrillaris [6] | Amoebicidal activity against N. fowleri [5] | other results
1 | N#C[C@@H]1CCCN1C(=O)CNC12CC3CC(CC(O)(C3)C1)C2 [Vildagliptin, (2S)-1-[2-[(3-hydroxy-1-adamantyl)amino]acetyl]pyrrolidine-2-carbonitrile] | Positive | did not exhibit any cytotoxicity | 14% | ≥ 3.13 µM | 100 µM | – | – | – | – | – | – | – | Inhibition of excystation of N. fowleri [4, 8]: did not inhibit excystation
2 | O=C(O)c1c(Cl)ccc2cc(Cl)cnc12 [Quinclorac, 3,7-Dichloro-8-quinolinecarboxylic acid] | – | 6% | 53% | ≥ 25 µM | 102 µM | 297 µM | 50 µM | 30% | – | – | – | – | –
3 | CN1C(=O)[C@](O)(Cc2cccc(O)c2)N(C)C(=O)[C@@H]1Cc1c[nH]c2cccc([N+](=O)[O-])c12 [Thaxtomin A, (3R,6S)-3-hydroxy-3-[(3-hydroxyphenyl)methyl]-1,4-dimethyl-6-[(4-nitro-1H-indol-3-yl)methyl]piperazine-2,5-dione] | – | 4% | – | – | – | – | – | – | 39 µM | 94.7 µM | – | – | inhibition at 100 µM [3]: < 10%; inhibition at 100 µM [4]: 22%; Lowest concentration showing significant amoebicidal activity against N. fowleri [5, 9]: did not show anti-N. fowleri effects at any concentration tested
4 | CCC1=C(C)CN(C(=O)NCCc2ccc(S(=O)(=O)NC(=O)NC3CCC(C)CC3)cc2)C1=O (stereo not shown) [Glimepiride, 4-ethyl-3-methyl-N-[2-[4-[(4-methylcyclohexyl)carbamoylsulfamoyl]phenyl]ethyl]-5-oxo-2H-pyrrole-1-carboxamide] | Positive | 6% | < 10% | 12.5 µM | 5.2 µM | 63.6 µM | – | 53% | – | – | 54% | 92% | –
5 | O=C(O)/C=C/c1ccccc1 [Trans-cinnamic acid, (E)-3-phenylprop-2-enoic acid] | – | 8% | 32% | ≥ 3.13 µM | 9.4 µM | – | – | 59% | – | – | – | – | –
6 | Cc1ccc2c(c1)C(Nc1nc(N)nc(C(C)F)n1)C(C)C2 (stereo not shown) [Indaziflam, N-(2,3-dihydro-2,6-dimethyl-1H-inden-1-yl)-6-(1-fluoroethyl)-1,3,5-triazine-2,4-diamine] | – | 4% | – | – | – | – | 50 µM | – | 99.8 µM | 53.7 µM | 52% | 62% | inhibition at 100 µM [3]: 52%; inhibition at 100 µM [4]: 68%; minimal effective concentration ([5]; 24 h): 12.5 µM
7 | CN(C)C(=N)NC(=N)N [Metformin, 1-carbamimidamido-N,N-dimethylmethanimidamide] | – | – | – | 12.5 µM | – | – | – | – | – | 134 µM | – | – | Inhibition of excystation of N. fowleri [4, 8]: did not inhibit excystation
8 | OC1C(O)C(O)C(O)C(O)C1O (stereo not shown) [Inositol, cyclohexane-1,2,3,4,5,6-hexol] | Present in brain | 4% | – | ≥ 6.25 µM | 48.9 µM | 124 µM | 6.25 µM | 12% | – | – | – | – | –
9 | C[C@H]1O[C@H](O[C@H]2[C@H](O)[C@@H](O)[C@@H](O[C@H]3[C@H](O)[C@@H](O)C(O)O[C@@H]3CO)O[C@@H]2CO)[C@H](O)[C@@H](O)[C@@H]1N[C@H]1C=C(CO)[C@@H](O)[C@H](O)[C@H]1O (stereo partly drawn) [Acarbose, (3R,4R,5S,6R)-5-[(2R,3R,4R,5S,6R)-5-[(2R,3R,4S,5S,6R)-3,4-dihydroxy-6-methyl-5-[[(1S,4R,5S,6S)-4,5,6-trihydroxy-3-(hydroxymethyl)cyclohex-2-en-1-yl]amino]oxan-2-yl]oxy-3,4-dihydroxy-6-(hydroxymethyl)oxan-2-yl]oxy-6-(hydroxymethyl)oxane-2,3,4-triol] | Negative | – | < 10% | ≥ 25 µM | – | – | – | 17% | 80.8 µM | 3.6 µM | 60% | 74% | –
10 | N#Cc1c(Cl)cccc1Cl [Dichlobenil (2,6-DNBT), 2,6-dichlorobenzonitrile] | – | – | – | – | – | – | 25 µM | – | 39.6 µM | 24.2 µM | 60% | 69% | Cytotoxicity against HaCaT cells ([2]; human, 24 h): 3%; inhibition at 100 µM [3]: 45%; inhibition at 100 µM [4]: 45%; minimal effective concentration ([5]; 24 h): ≥ 6.25 µM
11 | Cellulase | – | – | – | – | – | – | 100 µM | – | – | – | – | – | EC50 ([6]; trophozoites, Trypan blue): 106 µM; Cytotoxicity against HaCaT cells [2]: did not exhibit any cytotoxicity; Inhibition of excystation of N. fowleri [4, 8]: 39%; Lowest concentration showing significant amoebicidal activity against N. fowleri [5, 9]: did not show anti-N. fowleri effects at any concentration tested
12 | CCNc1nc(Cl)nc(NC(C)(C)C)n1 [Terbuthylazine, 2-N-tert-butyl-6-chloro-4-N-ethyl-1,3,5-triazine-2,4-diamine] | – | 2% | < 10% | ≥ 3.13 µM | 7.5 µM | 62.5 µM | – | 29% | – | – | 61% | 63% | –
